Experiment [1] has as its target Delta-type opioid receptor (Homo sapiens, UniProt P41143). The experiment can be described thus: Displacement of [3H]DADLE from human DOR expressed in HEK cells measured after 90 mins by microbeta scintillation counting method. Format: cell-based, HEK293.
For experiment [2], the system named is PC-12. The experiment can be described thus: Selectivity ratio of Ki for sigma2 receptor in rat PC12 cells to Ki for guinea pig sigma1 receptor. It is filed as cell-based.
Experiment [3] concerns the target Kappa-type opioid receptor (Homo sapiens, UniProt P41145). The experiment can be described thus: Displacement of [3H]U69593 from KOR (unknown origin) expressed in HEKT cells measured after 90 mins by microbeta scintillation counting method. It is filed as cell-based.
The next experiment addresses Mu-type opioid receptor (Homo sapiens, UniProt P35372). Description: Displacement of [3H]DAMGO from human MOR expressed in HEK cells after 90 mins by microbeta scintillation counting method. Format: cell-based, HEK293.
Experiment [4] deals with Sigma non-opioid intracellular receptor 1 (Cavia porcellus, UniProt Q60492). The experiment can be described thus: Displacement of [3H]pentazocine from guinea pig sigma1 receptor measured after 90 mins by microbeta scintillation counting method.
For experiment [5], the system named is PC-12. Description: Selectivity ratio of Ki for guinea pig sigma1 receptor to Ki for sigma2 receptor in rat PC12 cells. Format: cell-based.
A short description of experiment [6]: Displacement of [3H]DTG from sigma2 receptor in rat PC12 cells measured after 90 mins by microbeta scintillation counting method. The note with it: pc-12. Format: cell-based.
In experiment [7] the target is T1, 5-hydroxytryptamine receptor 1A (Homo sapiens, UniProt P08908).
T1 sequence (P08908 whole entry): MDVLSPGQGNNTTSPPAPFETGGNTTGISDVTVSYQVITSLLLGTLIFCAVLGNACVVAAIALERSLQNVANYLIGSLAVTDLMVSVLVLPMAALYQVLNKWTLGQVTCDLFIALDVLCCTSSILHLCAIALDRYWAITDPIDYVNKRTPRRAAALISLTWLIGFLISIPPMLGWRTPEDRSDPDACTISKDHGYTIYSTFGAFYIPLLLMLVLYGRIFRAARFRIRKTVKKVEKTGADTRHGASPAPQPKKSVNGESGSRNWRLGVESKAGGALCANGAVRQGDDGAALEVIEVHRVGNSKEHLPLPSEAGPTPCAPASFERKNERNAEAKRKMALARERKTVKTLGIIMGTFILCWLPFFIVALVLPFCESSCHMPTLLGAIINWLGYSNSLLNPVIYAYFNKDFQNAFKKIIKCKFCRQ
The experiment can be described thus: Displacement of [3H]Way100635 from human 5-HT1A receptor expressed in CHO cells measured after 90 mins by microbeta scintillation counting method. Format: cell-based.

The structures appear in SMILES notation.

Mu-type opioid receptor, sequence (P35372 whole entry): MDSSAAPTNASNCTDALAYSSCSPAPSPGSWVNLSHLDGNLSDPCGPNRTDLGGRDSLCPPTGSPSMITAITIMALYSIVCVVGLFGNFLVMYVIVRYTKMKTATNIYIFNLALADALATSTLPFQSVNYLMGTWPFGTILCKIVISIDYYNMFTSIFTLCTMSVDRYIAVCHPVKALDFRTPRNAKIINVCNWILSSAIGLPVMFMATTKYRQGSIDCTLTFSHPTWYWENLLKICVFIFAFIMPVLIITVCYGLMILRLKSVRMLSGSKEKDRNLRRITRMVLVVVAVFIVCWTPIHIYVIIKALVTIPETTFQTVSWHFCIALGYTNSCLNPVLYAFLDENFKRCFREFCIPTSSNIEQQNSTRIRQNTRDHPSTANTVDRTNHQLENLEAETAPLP
Delta-type opioid receptor, sequence (P41143 whole entry): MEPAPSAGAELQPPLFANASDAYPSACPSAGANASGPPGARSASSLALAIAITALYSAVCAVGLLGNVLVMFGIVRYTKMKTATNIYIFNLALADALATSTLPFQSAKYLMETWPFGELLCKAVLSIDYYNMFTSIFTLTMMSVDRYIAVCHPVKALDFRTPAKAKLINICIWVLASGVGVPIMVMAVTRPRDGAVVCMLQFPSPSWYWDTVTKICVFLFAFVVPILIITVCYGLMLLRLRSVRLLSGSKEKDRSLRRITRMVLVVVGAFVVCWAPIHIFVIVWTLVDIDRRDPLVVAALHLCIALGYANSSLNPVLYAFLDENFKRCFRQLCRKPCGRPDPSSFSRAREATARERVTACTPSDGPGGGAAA
Kappa-type opioid receptor, sequence (P41145 whole entry): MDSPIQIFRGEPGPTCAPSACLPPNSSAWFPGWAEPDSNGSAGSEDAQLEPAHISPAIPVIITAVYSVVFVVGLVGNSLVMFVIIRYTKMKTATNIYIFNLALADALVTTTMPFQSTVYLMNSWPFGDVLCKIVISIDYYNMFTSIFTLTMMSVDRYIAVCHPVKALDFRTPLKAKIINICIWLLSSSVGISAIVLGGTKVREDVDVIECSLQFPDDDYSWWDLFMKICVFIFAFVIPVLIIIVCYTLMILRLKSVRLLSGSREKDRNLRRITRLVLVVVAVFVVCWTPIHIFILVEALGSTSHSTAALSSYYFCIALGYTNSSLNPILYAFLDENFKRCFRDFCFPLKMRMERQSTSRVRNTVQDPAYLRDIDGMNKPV
Sigma non-opioid intracellular receptor 1, sequence (Q60492 whole entry): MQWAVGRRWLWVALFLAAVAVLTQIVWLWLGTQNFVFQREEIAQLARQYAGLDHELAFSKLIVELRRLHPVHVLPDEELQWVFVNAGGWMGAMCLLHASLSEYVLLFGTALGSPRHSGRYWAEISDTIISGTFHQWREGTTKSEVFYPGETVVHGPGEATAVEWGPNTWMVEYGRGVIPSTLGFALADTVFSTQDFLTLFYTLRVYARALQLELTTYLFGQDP

Regarding `COc1ccc(C[C@H]2C(=O)C[C@@H]3CCN(CC4CCCCC4)[C@@H]4CCC[C@H]2[C@@H]34)cc1`, the Ki is above 10000 nM in experiment [1]; 1600 nM in experiment [3]; above 10000 nM at Mu-type opioid receptor; 10 nM in experiment [4]; 3 nM in experiment [6]. Also, the results for the Ratio Ki in the experiment on PC-12 [2] and in the experiment with PC-12 [5] were 0.3 and 3, respectively.
As for `CCCN1CC[C@H]2c3cc4ccccc4nc3[C@H](CC)[C@H]3CCC[C@@H]1[C@@H]32`, the Ki in experiment [1] was above 10000 nM; in experiment [3], 493 nM; at Mu-type opioid receptor, above 10000 nM; in experiment [4], 70 nM; in experiment [6] it was 27 nM. Moreover, the Ratio Ki in the experiment with PC-12 [2] turned out to be 0.4; with PC-12 [5] it was 2.6.
In the case of `CC[C@H]1c2nc3ccccc3cc2[C@@H]2CCN(C)[C@@H]3CCC[C@H]1[C@H]32`, the Ki in experiment [1] is above 10000 nM; in experiment [3] it was 3490 nM; at Mu-type opioid receptor, above 10000 nM; in experiment [4], 189 nM; in experiment [6], 86 nM. Besides, the Ratio Ki with PC-12 [2] is 0.5; in the experiment on PC-12 [5], 2.2.
`CCCN1CC[C@H]2c3cc4cccc(OC)c4nc3[C@H](CC)[C@H]3CCC[C@@H]1[C@@H]32`: the Ki in experiment [1] was above 10000 nM; in experiment [3], 1690 nM; on Mu-type opioid receptor it was above 10000 nM; in experiment [4], 171 nM; in experiment [6] it was 63 nM. Moreover, the Ratio Ki was 0.4 in the experiment on PC-12 [2] and 2.7 in the experiment with PC-12 [5].
Consider `CCCN1CC[C@H]2c3cc4cc(Cl)ccc4nc3[C@H](CC)[C@H]3CCC[C@@H]1[C@@H]32`, for which the Ki in experiment [1] is above 10000 nM; in experiment [3] it was 372 nM; on Mu-type opioid receptor, above 10000 nM; in experiment [4] it was 209 nM; in experiment [6] it was 17 nM. Further, the Ratio Ki in the experiment on PC-12 [2] was determined as 0.08; in the experiment on PC-12 [5] it was 12.3.
For the compound `CCCN1CC[C@H]2CC(=O)[C@H](CC)[C@H]3CCC[C@@H]1[C@H]23`, the Ki is above 10000 nM in experiment [1]; 4500 nM in experiment [7]; above 10000 nM in experiment [3]; above 10000 nM on Mu-type opioid receptor; 11 to 12 nM in experiment [4]; 230 to 401 nM in experiment [6]. Further, the Ratio Ki in the experiment with PC-12 [2] worked out at 20.9.
For the compound `CC(C)CCN1CC[C@H]2CC(=O)[C@H](Cc3ccccc3)[C@H]3CCC[C@@H]1[C@H]23`, the Ki in experiment [1] is above 10000 nM; in experiment [3] it was 711 nM; on Mu-type opioid receptor it was above 10000 nM; in experiment [4], 2 nM; in experiment [6] it was 3 nM. In addition, in the experiment on PC-12 [2], the Ratio Ki was found to be 1.5.
